The target in assay [1] is Signal transducer and activator of transcription 3 (Homo sapiens, UniProt P40763). As to the kind of experiment: STAT3 activators, late-stage profile, late-stage follow-up, cell-based, STAT1 reporter, BCL3 qPCR, cytotoxicity, panel member STAT3 Activation (AID 2049). (In general: Quantitative PCR measures a nucleic acid by following its amplification.)
In assay [2] the target is G2/mitotic-specific cyclin-B1 (Homo sapiens, UniProt P14635). As to the kind of experiment: G2/M cell cycle arrest in HeLa, late-stage follow-up, mechanism study for Wee1 degradation inhibitor project, FACS, panel member Cyclin B Degradation (AID 2088).
G2/mitotic-specific cyclin-B1, sequence (P14635 whole entry): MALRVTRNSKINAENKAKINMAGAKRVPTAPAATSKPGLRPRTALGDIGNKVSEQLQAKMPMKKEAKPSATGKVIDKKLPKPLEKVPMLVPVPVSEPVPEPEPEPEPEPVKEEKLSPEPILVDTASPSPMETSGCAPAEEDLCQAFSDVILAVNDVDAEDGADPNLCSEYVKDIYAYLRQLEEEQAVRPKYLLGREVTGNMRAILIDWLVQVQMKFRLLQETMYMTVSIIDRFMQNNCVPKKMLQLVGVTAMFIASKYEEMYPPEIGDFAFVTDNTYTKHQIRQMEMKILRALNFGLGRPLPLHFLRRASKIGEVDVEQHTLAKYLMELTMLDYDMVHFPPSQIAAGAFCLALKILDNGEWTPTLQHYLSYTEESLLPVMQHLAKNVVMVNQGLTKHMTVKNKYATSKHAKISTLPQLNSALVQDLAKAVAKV
Assay [3] can be described thus: HEK293T cell cytotoxicity, dose response, cytotoxicity control for HIV Vif inhibitor project, cherry-picks (AID 652208). The assay is classed as functional, cell-based.
Assay [4] addresses T1, Photoreceptor-specific nuclear receptor (Homo sapiens, UniProt Q9Y5X4). Format: functional, cell-based.
The target of assay [5] is Wee1-like protein kinase (Homo sapiens, UniProt P30291). Briefly: G2/M cell cycle arrest in HeLa, late-stage follow-up, mechanism study for Wee1 degradation inhibitor project, FACS, panel member Wee1 Degradation (AID 2088).
Wee1-like protein kinase, sequence (P30291 whole entry): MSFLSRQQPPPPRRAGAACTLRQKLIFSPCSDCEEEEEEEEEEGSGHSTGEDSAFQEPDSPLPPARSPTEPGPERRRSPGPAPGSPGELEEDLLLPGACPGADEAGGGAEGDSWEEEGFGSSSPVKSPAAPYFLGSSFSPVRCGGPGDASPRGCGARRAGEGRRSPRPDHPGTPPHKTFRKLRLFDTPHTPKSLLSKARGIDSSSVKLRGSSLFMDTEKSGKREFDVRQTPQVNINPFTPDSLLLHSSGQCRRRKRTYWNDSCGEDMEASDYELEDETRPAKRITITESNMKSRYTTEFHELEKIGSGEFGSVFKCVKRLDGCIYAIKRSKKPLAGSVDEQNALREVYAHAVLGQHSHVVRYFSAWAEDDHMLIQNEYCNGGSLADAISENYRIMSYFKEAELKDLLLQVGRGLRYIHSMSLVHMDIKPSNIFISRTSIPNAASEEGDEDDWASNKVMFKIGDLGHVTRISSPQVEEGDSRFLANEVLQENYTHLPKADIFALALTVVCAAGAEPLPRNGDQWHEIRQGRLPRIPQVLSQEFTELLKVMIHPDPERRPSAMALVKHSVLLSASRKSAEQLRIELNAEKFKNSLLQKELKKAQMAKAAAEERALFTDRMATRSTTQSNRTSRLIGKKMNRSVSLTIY
Assay [6] addresses T1, Photoreceptor-specific nuclear receptor. The assay is classed as functional.
The target of assay [7] is Peroxisome proliferator-activated receptor gamma/Nuclear receptor corepressor 2 (Homo sapiens, UniProt P37231+Q9Y618). Format: functional.
In assay [8] the target is Polyadenylate-binding protein 1 (Homo sapiens, UniProt P11940). Briefly: PABP poly(A) RNA binding inhibitors, primary screen, biochemical, fluorescence polarization, uHTS (AID 2014). In general terms: Fluorescence polarisation rises when a labelled molecule tumbles more slowly, as on binding a larger partner.
Polyadenylate-binding protein 1, sequence (P11940 whole entry): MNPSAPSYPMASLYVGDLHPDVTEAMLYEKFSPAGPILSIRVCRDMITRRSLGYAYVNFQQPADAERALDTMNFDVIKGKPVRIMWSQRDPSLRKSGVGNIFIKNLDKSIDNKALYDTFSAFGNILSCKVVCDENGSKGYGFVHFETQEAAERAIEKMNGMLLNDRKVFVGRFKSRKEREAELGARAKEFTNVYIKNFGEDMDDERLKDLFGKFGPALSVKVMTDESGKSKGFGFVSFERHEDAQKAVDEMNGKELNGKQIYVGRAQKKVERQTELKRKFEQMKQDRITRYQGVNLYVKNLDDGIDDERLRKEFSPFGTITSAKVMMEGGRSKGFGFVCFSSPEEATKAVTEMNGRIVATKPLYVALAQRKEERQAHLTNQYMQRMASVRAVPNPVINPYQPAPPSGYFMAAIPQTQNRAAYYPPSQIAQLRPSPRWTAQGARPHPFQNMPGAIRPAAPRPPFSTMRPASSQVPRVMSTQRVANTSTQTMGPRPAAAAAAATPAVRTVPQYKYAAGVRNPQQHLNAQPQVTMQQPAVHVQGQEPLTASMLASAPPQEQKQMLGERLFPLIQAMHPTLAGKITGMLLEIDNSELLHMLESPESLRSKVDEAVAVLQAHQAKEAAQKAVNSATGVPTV
Assay [9] has as its target Eukaryotic translation initiation factor 4H (Homo sapiens, UniProt Q15056). As to the kind of experiment: human eIF4H binding inhibitors, primary screen, translation initiation inhibitor project, biochemical, uHTS, fluorescence polarization (AID 2012).
Assay [10] has as its target T2, Heat shock factor protein 1 (Mus musculus, UniProt P38532).
T2 sequence (P38532 whole entry): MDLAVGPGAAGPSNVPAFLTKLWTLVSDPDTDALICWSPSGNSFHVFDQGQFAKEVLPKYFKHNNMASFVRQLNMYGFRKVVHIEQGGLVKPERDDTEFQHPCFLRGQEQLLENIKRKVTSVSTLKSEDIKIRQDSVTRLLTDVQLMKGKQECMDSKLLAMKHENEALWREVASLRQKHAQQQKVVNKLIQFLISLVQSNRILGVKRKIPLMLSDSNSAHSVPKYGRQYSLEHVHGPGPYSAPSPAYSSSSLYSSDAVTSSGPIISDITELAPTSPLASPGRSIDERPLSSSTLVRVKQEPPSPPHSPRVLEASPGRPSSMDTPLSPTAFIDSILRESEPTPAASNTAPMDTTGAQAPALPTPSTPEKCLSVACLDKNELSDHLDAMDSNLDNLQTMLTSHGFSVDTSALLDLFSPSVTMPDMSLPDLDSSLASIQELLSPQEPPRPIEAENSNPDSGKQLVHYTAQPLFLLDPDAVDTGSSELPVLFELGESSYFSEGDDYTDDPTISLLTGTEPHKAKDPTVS
Briefly: HSF1 potentiators in luciferase reporter cells, confirmation, cell-based, NIH3T3, luminescence, dose retest (AID 435004).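 Note: stress induced by proteasome inhibitor MG132 added 30 min after compound; luciferase reporter driven by HSF1 response element in NIH3T3 cells; actives raise luminescence as potentiators of the MG132 stress response.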 The assay is classed as functional. Background: In a reporter assay the amount or activity of a reporter protein is the signal.

In assay [11] the target is T3, Methionyl-tRNA synthetase, putative (Trypanosoma brucei brucei, UniProt Q38C91).
T3 sequence (Q38C91 whole entry): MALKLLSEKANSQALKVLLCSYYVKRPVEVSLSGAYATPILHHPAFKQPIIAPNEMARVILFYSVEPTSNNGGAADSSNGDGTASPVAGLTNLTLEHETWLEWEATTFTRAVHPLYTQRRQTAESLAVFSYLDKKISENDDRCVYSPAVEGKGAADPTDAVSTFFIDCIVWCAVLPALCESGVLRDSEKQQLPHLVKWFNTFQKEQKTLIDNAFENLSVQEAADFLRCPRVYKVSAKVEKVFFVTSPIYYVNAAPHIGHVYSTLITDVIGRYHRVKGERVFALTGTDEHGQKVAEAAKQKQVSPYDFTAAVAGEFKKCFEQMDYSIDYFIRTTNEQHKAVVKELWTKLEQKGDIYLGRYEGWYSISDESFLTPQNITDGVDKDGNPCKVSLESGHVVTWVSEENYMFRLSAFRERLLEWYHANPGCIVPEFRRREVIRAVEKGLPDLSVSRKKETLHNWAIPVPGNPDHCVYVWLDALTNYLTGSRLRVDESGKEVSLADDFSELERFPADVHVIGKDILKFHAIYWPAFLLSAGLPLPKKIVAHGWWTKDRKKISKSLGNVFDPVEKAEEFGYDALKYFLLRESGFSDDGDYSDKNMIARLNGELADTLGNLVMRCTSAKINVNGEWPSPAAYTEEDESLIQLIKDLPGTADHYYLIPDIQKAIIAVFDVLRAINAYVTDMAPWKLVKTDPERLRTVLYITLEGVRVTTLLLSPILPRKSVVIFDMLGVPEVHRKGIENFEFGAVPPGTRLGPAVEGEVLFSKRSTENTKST
The assay is classed as functional, Trypanosoma brucei brucei strain 927/4 GUTat10.1.

The target in assay [12] is Transitional endoplasmic reticulum ATPase (Homo sapiens, UniProt P55072). Briefly: p97 ATPase inhibitors, dose response, biochemical (AID 1534).
Assay [13] addresses Ras and Rab interactor 1/Tyrosine-protein kinase ABL1 (Homo sapiens, UniProt P00519+Q13671). Format: functional.
The target of assay [14] is Tyrosyl-DNA phosphodiesterase 2 (Homo sapiens, UniProt O95551). As to the kind of experiment: human TDP2 enzyme inhibitors, dose response, biochemical, epi absorbance, IC50 (AID 743297).
Assay [15] has as its target T3, Methionyl-tRNA synthetase, putative. Format: functional, Trypanosoma brucei brucei strain 927/4 GUTat10.1. The source holds these as a separate data set.
Assay [16] has as its target E3 ubiquitin-protein ligase UHRF1 (Homo sapiens, UniProt Q96T88). Briefly: Counterscreen for inhibitors of 5-meCpG-binding domain protein 2 (MBD2): TRFRET-based biochemical high throughput dose response assay to identify inhibitors of binding of ubiquitin-like with PHD and ring finger domains 1 (UHRF1) to methylated oligonucleotide.
For assay [17], the target named is T4, Replicative DNA helicase DnaB (Mycobacterium tuberculosis, UniProt P9WMR3).
T4 sequence (P9WMR3 whole entry): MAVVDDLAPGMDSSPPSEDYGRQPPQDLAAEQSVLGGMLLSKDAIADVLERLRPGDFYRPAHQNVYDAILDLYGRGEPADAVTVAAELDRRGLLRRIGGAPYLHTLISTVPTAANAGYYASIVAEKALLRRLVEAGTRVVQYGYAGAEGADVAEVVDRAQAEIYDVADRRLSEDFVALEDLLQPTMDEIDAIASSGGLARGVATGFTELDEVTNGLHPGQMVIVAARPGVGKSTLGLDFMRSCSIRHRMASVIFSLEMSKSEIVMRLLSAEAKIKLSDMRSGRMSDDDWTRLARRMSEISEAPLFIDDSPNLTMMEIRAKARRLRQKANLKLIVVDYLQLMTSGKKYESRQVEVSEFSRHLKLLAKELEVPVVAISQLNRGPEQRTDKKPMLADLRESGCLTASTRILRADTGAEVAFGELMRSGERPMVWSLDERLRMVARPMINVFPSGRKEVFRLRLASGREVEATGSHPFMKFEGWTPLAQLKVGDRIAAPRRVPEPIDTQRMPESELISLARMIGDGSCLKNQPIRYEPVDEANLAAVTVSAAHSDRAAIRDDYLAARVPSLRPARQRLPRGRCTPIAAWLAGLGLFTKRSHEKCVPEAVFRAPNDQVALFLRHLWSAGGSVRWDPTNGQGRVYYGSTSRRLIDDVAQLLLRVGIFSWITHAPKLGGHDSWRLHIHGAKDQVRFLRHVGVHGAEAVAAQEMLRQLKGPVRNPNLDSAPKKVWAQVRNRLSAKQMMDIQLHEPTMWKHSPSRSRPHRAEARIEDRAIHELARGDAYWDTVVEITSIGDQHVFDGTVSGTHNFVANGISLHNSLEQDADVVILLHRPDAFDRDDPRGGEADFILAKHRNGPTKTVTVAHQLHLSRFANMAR
As to the kind of experiment: DnaB intein splicing inhibitors, dose response, biochemical, cell-free fluorescence (AID 449749). The assay is classed as functional.

For assay [18], the target named is T5, Protein RecA (Mycobacterium tuberculosis, UniProt P9WHJ3).
T5 sequence (P9WHJ3 whole entry): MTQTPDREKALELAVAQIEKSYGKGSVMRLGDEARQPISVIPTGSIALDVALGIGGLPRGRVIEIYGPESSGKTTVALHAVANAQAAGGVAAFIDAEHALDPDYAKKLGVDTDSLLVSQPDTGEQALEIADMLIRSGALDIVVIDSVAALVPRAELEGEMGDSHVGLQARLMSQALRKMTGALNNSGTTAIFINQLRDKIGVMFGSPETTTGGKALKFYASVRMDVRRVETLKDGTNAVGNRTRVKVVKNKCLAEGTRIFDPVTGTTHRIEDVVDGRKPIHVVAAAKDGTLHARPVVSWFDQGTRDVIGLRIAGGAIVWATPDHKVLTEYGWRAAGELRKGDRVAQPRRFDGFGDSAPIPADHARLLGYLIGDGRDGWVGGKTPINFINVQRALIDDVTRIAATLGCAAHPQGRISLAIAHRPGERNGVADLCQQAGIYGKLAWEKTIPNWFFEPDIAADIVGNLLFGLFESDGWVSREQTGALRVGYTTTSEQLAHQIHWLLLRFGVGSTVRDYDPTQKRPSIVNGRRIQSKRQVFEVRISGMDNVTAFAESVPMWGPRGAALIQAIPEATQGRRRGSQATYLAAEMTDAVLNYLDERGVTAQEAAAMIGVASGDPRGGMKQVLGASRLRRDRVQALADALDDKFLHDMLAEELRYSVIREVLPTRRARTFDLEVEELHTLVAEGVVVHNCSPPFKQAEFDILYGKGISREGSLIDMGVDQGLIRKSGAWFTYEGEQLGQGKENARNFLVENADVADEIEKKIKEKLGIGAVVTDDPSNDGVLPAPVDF
As to the kind of experiment: Fluorescence Cell-Free Homogeneous Dose Retest to Identify Inhibitors of RecA-Intein Splicing Activity. [Related pubchem assays (depositor defined):AID2097, AID2223, AID489010, AID492950]. Format: functional.

Assay [19] concerns the target Transitional endoplasmic reticulum ATPase (Homo sapiens, UniProt P55072, C522A). Briefly: C522A mutant p97 ATPase inhibitors, dose response, counter-screen for p97 inhibitor project, biochemical, luminescence (AID 1544).
Assay [20] in a line: Counterscreen for inhibitors of Trypanosoma brucei methionyl tRNA synthetase (MetRS): Luminescence-based cell-based high throughput dose response assay to identify compounds that are cytotoxic to Jurkat human T lymphocyte cells. The assay is classed as functional.
Assay [21] concerns the target Procathepsin L (Homo sapiens, UniProt P07711).
The target of assay [22] is Aspartyl aminopeptidase (Plasmodium falciparum 3D7, UniProt Q8I2J3).
Aspartyl aminopeptidase, sequence (Q8I2J3 whole entry): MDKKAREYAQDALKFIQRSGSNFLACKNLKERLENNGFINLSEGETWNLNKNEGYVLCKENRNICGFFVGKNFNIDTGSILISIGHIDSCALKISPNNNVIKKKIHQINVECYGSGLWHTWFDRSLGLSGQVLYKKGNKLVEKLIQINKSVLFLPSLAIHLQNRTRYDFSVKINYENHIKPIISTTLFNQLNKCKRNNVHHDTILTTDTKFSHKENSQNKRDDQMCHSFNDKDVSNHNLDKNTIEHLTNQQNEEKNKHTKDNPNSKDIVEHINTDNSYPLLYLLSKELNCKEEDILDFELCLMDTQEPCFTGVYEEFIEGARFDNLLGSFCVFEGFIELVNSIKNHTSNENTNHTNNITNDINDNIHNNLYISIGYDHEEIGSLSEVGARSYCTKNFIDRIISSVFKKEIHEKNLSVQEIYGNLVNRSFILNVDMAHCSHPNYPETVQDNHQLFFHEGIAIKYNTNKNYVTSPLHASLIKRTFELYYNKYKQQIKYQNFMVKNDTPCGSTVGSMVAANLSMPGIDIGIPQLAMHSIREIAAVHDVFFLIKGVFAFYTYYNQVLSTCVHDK

Activity calls are given as the source filed them.

T1 sequence (Q9Y5X4 whole entry): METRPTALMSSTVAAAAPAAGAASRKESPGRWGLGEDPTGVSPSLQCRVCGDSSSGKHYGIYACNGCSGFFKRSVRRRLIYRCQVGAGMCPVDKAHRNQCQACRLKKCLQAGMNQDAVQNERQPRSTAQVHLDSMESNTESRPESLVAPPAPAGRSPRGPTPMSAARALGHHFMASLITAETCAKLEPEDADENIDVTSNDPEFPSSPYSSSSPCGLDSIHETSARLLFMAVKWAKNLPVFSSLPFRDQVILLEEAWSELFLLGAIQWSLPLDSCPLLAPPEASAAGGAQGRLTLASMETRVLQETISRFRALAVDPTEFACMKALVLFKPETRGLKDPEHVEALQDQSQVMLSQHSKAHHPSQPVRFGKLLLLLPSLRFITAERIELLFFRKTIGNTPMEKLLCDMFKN
E3 ubiquitin-protein ligase UHRF1, sequence (Q96T88 whole entry, the tested form may be a part): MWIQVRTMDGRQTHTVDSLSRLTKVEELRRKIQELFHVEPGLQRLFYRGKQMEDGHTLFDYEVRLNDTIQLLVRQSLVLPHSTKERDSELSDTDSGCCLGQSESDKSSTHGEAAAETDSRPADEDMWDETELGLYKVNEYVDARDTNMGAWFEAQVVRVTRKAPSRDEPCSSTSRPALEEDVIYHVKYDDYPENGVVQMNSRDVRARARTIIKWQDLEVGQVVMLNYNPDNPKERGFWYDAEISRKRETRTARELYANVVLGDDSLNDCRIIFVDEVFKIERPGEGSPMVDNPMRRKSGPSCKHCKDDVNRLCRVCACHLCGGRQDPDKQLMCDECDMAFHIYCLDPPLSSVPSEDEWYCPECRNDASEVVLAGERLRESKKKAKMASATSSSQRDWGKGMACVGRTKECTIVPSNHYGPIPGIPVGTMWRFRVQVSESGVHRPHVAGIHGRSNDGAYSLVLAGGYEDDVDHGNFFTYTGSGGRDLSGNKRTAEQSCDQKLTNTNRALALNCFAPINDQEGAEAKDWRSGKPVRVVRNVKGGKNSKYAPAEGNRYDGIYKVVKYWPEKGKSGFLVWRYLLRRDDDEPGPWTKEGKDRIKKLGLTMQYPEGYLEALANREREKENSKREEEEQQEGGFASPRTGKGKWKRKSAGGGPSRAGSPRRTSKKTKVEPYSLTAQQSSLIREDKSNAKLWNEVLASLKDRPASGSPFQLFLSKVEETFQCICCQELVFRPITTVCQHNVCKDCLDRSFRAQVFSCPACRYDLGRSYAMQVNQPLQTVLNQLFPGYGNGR
Transitional endoplasmic reticulum ATPase (Homo sapiens, UniProt P55072, C522A), sequence (P55072 2-806 C522A limits assumed): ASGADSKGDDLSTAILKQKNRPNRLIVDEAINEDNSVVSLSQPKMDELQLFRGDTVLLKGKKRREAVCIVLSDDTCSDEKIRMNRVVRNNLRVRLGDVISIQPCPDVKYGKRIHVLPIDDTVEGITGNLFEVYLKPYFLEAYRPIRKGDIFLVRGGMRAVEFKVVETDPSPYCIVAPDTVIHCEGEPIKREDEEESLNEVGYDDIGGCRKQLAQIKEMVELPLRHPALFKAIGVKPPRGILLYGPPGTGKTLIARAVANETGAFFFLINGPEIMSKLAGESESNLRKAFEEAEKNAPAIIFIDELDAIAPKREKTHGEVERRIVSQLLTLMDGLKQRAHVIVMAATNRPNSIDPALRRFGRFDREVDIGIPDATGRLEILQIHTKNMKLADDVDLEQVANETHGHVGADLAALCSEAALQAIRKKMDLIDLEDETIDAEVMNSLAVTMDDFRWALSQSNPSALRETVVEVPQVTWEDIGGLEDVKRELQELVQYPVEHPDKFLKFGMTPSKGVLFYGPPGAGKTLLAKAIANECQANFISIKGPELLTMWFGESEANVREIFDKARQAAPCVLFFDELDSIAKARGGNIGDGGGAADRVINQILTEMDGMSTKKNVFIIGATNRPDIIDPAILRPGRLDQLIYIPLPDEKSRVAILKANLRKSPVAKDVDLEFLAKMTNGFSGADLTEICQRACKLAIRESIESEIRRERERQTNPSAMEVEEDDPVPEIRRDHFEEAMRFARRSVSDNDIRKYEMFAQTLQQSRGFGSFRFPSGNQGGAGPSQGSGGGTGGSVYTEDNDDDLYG
Procathepsin L, sequence (P07711 whole entry): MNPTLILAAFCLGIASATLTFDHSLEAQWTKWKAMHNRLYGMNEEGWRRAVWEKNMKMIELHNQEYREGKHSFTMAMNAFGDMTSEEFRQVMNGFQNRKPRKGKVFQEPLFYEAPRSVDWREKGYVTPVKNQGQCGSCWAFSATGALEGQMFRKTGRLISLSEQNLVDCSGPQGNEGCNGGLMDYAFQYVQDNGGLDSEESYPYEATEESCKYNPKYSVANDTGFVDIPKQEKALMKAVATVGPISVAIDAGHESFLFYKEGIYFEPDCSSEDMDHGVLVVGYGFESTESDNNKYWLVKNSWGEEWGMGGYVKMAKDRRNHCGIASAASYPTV

A word on the EC50: it is the concentration needed to bring the measured effect to its halfway point. Regarding `COc1cc(OC)c(NC(=O)c2cc(CN3CCCC3)on2)cc1Cl`, in [1], the EC50 is > 55.7 µM (inactive).
In general, AC50 refers to the concentration giving half of the maximal activity seen. The term IC50 denotes the concentration at which inhibition is half-maximal. For the compound `Cc1ccnc(NC(=O)CCCOc2cc(=O)n(C)c3ccccc23)c1`, the EC50 in assay [2] is > 55.7 µM (inactive); in assay [5], > 6.19 µM (active). Besides, in [3], the AC50 was > 52 µM (inactive). Further, in assay [4], the IC50 is 2.97 µM (active).
As to `O=C(C1=C(O)C(=O)N(CC2CCCO2)C1c1ccc(Cl)cc1Cl)c1ccco1` (configuration not stated), the values for the IC50 in assay [6] and in assay [7] were > 39.8 µM (not active) and 13.7 µM (not active), respectively.
Take `CCN(CC)CCCN=C1N[C@@H](c2ccccc2)C(C(=O)OC)=C(C)N1CC`: the figures for the IC50 in assay [8] and in [9] were 10.6 µM (active) and > 100 µM (inactive), respectively.
Consider `O=S(=O)(Nc1cc2nc3ccccc3nc2n1Cc1ccccc1)c1ccc(Cl)cc1`, for which the EC50 in assay [10] is > 260 µM (inactive); in [18] it was 1.5 µM (active). Further, the concentration for half-maximal inhibition (IC50) is 2.46 µM (active) in assay [11]; > 50 µM (not active) in [12]; > 73.5 µM (inactive) in [13]; > 14.3 µM (inactive) in [14]; 4.93 µM (active) in assay [15]; > 43.8 µM (inactive) in assay [16]. Moreover, the IC50 is > 50 µM (not active) in assay [19] and 28.8 µM (inactive) in assay [20]. For the same compound, the AC50 in assay [17] is 10.1 µM (active).
For the compound `O=C(NC(=S)Nn1cnnc1)c1ccccc1Br`, the figures for the IC50 in [21] and in assay [22] were > 59.6 µM (not active) and 1.5 µM (active), respectively.

(Values after ChEMBL document CHEMBL1201862, “PubChem BioAssay data set” (2004).)
